Assay results published in patent US5654426A, “Ecteinascidins” (priority 1995, dated 1997).
Values after ≈ are worked out from the molar mass of the structure shown.

Key:
[1] = test system: variety of tumor models in mice; assay: In vivo activity against several tumor models in mice
M-5076 ovarian sarcoma = assay: In vivo antitumor activity in mice vs. M-5076 ovarian sarcoma
L1210 leukemia cells = assay: Inhibition of L1210 leukemia cells in plate assays; type: cell-based; conditions: Mus musculus
Procedure: Et's 722 (Compound 6) and 736 (Compound 7)inhibit L1210 leukemia cells to the extent of 90% in plate assays at 2.5 and 5.0 μg/ml, respectively.

P-388 leukemia cells = assay: In vivo antitumor activity in mice vs. P-388 leukemia; conditions: for T/C vs. P-388 / survivors, P-388: mice
[2] = test system: LX-1 human lung carcinoma xenograft; assay: In vivo antitumor activity in mice vs. LX-1 human lung carcinoma xenograft
[3] = test system: MX-1 human mammary carcinoma xenograft; assay: In vivo antitumor activity in mice vs. MX-1 human mammary carcinoma xenograft
[4] = test system: HT-29 human colon cancer cell line; assay: In vitro activity against HT-29 human colon cancer cell line; type: cell-based
Procedure: (§1) Compounds 3 and 5 described herein were tested in vitro against the following cell lines; P-388 murine leukemia cell line; HT-29 human colon cancer cell line; A-549 human lung adenocarcinoma cell line; and CV-1 monkey kidney cell line (non-cancerous); and the IC50 in μg/ml was determined.

[5] = test system: CV-1 monkey kidney cell line; assay: In vitro activity against CV-1 monkey kidney cell line (non-cancerous); type: cell-based; conditions: CV-1 monkey kidney (non-cancerous)
Procedure: as §1

[6] = test system: A-549 human lung adenocarcinoma cell line; assay: In vitro activity against A-549 human lung adenocarcinoma cell line; type: cell-based
Procedure: as §1

[7] = test system: P-388 murine leukemia cell line; assay: In vitro activity against P-388 murine leukemia cell line; type: cell-based
Procedure: as §1

DNA = conditions: Lown et al. 1982; Zmijewski et al. 1985; cited from earlier work
Lewis lung carcinoma = assay: In vivo antitumor activity in mice vs. Lewis lung carcinoma
B-16 melanoma = assay: In vivo antitumor activity in mice vs. B-16 melanoma
[8] = comparison Compound 1 vs. Compound 6

With `COc1c(C)cc2c(c1O)C1NC(C2)[C@H](O)N2C3COC(=O)[C@]4(CSC(c5c(OC(C)=O)c(C)c6c(c53)OCO6)C12)NCCc1c4[nH]c2ccccc12` (stereo partly shown) [Compound 6] the “in vivo activity in mice” value [1] was “highly active in vivo in mice”, the “activity vs. M-5076 ovarian sarcoma” value (M-5076 ovarian sarcoma; mice) was “slightly active” and the inhibition at 2.5 µg/mL (L1210 leukemia cells; at 2.5 μg/ml) was 90%. The “T/C vs. P-388” value (P-388 leukemia cells; 25 μg/kg day) was greater than 265, the “survivors, P-388” value (P-388 leukemia cells; 25 μg/kg day) was 2/6 and the “activity vs. P-388 compared with Compound 1” value (P-388 leukemia cells; comparison Compound 6 vs. Compound 1) was “more effective than Compound 1”. For the same compound, the “T/C vs. LX-1” value ([2]; 50 μg/kg, mice) was 200 and the “activity vs. MX-1 human mammary carcinoma xenograft” value ([3]; mice) was “slightly active”.

With `COc1cc2c(cc1O)CCN[C@]21CSC2c3c(OC(C)=O)c(C)c4c(c3C(COC1=O)N1C2C2c3c(cc(C)c(OC)c3O)CC([C@@H]1O)N2C=O)OCO4` (stereo partly shown) [Compound 3, N^12 -Formyl Et 729] the IC50 [4] was 2 ng/mL (≈ 2.58 nM), the IC50 ([5]; Primates) was 5 ng/mL (≈ 6.44 nM) and the IC50 ([6]; A549) was 2 ng/mL (≈ 2.58 nM). The IC50 ([7]; Mus musculus, P388) was 0.5 ng/mL (≈ 0.644 nM).

Compound `COc1c(C)cc2c(c1O)C1C3C4SC[C@]5(NCCc6c5[nH]c5ccccc65)C(=O)OCC(c5c6c(c(C)c(OC(C)=O)c54)OCO6)N3[C@@H](O)C(C2)N1C` (stereo partly shown) [Compound 7] has an inhibition at 5 µg/mL (L1210 leukemia cells; at 5.0 μg/ml) of 90%.

In the case of `COC1=C(C)C(=O)C2=C(C1=O)C1C3CC4=C(C(=O)C(OC)=C(C)C4=O)C(CNC(=O)C(C)=O)N3C(C#N)C(C2)N1C` (stereo not shown) [saframycin A], the “reactions with DNA” value (DNA) is given as “reversible reactions”.

With `COc1cc2c(cc1O)CCN[C@]21CSC2c3c(OC(C)=O)c(C)c4c(c3C(COC1=O)N1C2C2c3c(cc(C)c(OC)c3O)CC([C@@H]1O)N2C)OCO4` (stereo partly shown) [Compound 2] the “in vivo activity in mice” value [1] was “exceedingly potent activity in vivo”.

For `COC1=C(C)C(=O)C2=C(C1=O)C(CO)N1C(O)C3CC4C(C1C2N1CCOC41)N3C` (stereo not shown) [naphthyridinomycin], the “reactions with DNA” value (DNA) is listed as “reversible reactions”.

With Et 743 N^12 -Oxide [Compound 5] the “IC50 against HT-29” value [4] was 2.5 ng/mL, the “IC50 against CV-1” value [5] was 2.5 ng/mL and the “IC50 against A-549” value [6] was 2.5 ng/mL. For the same compound, the “IC50 against P-388” value [7] was 1 ng/mL.

For `COc1cc2c(cc1O)CCN[C@]21CSC2c3c(OC(C)=O)c(C)c4c(c3C(COC1=O)N1C2C2NC(Cc3cc(C)c(OC)c(O)c32)[C@@H]1O)OCO4` (stereo partly shown) [Compound 1], the “in vivo activity in mice” value [1] was “exceedingly potent activity in vivo”, the “T/C vs. M-5076” value (M-5076 ovarian sarcoma; 12.5 μg/kg) was 204 and the “survivors, M-5076” value (M-5076 ovarian sarcoma; 12.5 μg/kg) was 5/10. The “activity vs. M-5076 compared with Compound 6” value (M-5076 ovarian sarcoma; [8]) was “more active”, the “T/C vs. Lewis lung” value (Lewis lung carcinoma; 25 μg/kg) was 0.00 and the “activity vs. Lewis lung compared with Compound 6” value (Lewis lung carcinoma; [8]) was “more active”. The “T/C vs. P-388” value (P-388 leukemia cells; 12.5 μg/kg day) was 190, the “survivors, P-388” value (P-388 leukemia cells; 12.5 μg/kg day) was 1/6 and the “T/C vs. B-16” value (B-16 melanoma; 12.5 μg/kg) was 253. The “activity vs. B-16 compared with Compound 6” value (B-16 melanoma; [8]) was “more active”, the “T/C vs. LX-1” value ([2]; 25 μg/kg) was 0.00 and the “activity vs. LX-1 compared with Compound 6” value [2, 8] was “more active”. The “T/C vs. MX-1” value ([3]; 37.5 μg/kg) was 0.05 and the “activity vs. MX-1 compared with Compound 6” value [3, 8] was “more active”.
